Data: US20210029993A1, “SPATIAL INHIBITORS, DETERRENTS AND REPELLENTS FOR MOSQUITOES AND MIDGES” (BEDOUKIAN RESEARCH, INC., priority 2005, published 2021)

What was measured:
Type in all cases: in vivo
[1] = system: mosquitoes; assay: Spatial inhibition of mosquitoes, outdoor Mosquito Magnet Liberty Plus trap catch; conditions: for Percent Caught Relative To Control: control trap = 100% catch, lower = more inhibition; for percent mosquitoes caught relative to the control (relative catch): two grams of test compound on absorbent material in CO2 and r-octenol stream of trap, 2-5 days, FIG. 5
Description: Two grams of test compound was absorbed onto pieces of absorbent material. These pieces of absorbent material (fragrance release material from Rhopore Inc.) containing absorbed test compound were then placed in a stream of CO2 and r-octenol being released from an American Biophysics Mosquito Magnet Liberty Plus mosquito trap designed to attract mosquitoes. The test were rotated over a period of 2-5 days in such a manner that both control (trap without test compound) and test compound were tested an equal number of times in each trap employed. The number of mosquitoes caught in the traps with test compounds was compared to the number of mosquitoes caught in the trap with no test compound material present. […] Thus, a lowered percentage is indicative of the increasing ability of the test compounds to inhibit the ability of the mosquitoes sense the target. […] In Table 3, weight percent (wt %) refers to the weight of the deterring/repelling/inhibiting compound, or combination of compounds, in the composition used in the tests. In the “Percent Caught Relative to Control” column in Table 3, a lower percentage is indicative of the increasing ability of the test compounds to inhibit the ability of the mosquitoes sense the target. The weight ratio of the compounds in the combination of compounds is given in parentheses in the “Compound(s)” column of Table 3.

[2] = system: female biting midges (Culicoides impunctatus); assay: Biting midges feeding test (Plexiglas module, treated membrane); conditions: control = 1.00, lower = more repellent
Description: The following tests are employed to illustrate the efficacy of the compounds of this disclosure to effectively act as biting midge deterrents, repellents or as spatial inhibitors for biting midges. […] Biting midges are tested in a two-piece Plexiglas module designed to assess their response to feeding deterrents. […] Water (40° C.) flows through the central cavity of the platform at a rate of 215 ml/min. The top piece of the module consists of six 4.5×4.0×5.0 cm chambers, the floors of which are fitted with a sliding door positioned over a circular opening 3.5 cm in diameter. Biting midges are introduced through an aperture 1 cm in diameter on the front wall of the chambers. For each test, five female biting midges (Culicoides impunctatus) are aspirated into each of five chambers of the top module piece and the apertures are plugged with corks wrapped in plastic film. […] To each well, 77.5 μl of green dye (McCormick Food, Hunt Valley, Md.) are added so that those biting midges imbibing the sugar solution can be identified when crushed at the end of the tests. Each membrane receives 50 μl of acetone or experimental compound solution, applied to 9.6 cm^2 circular area on 0.1 mm-thick membranes made of nylon mesh in a silicone matrix. The membranes are then placed over each well in contact with the sugar solution. The circular openings on the floor of each chamber of the top piece of the module are aligned with each membrane-covered well of the bottom piece. The sliding floors of the chambers are then opened allowing biting midges access to the membranes. The number of biting midges landing on the membranes, and those flying within the apparatus, are recorded each minute for five minutes. After five minutes, any biting midges remaining on the membranes are removed with a metal wire, and the door of the floor of each chamber is closed. The top piece of the module is then placed into a freezer for 20 minutes. In the test designed to assess feeding, biting midges are removed from the frozen module, crushed on white paper towels, and examined for the presence of green dye to indicate that feeding had occurred. The proportions of biting midges feeding per trial are analyzed using a standard generalized linear model with a logit link. Landing and flying scores are repeated measures; five readings are obtained for groups of five biting midges. Thus, to maintain independence among the data, the five readings are summed, and then the sums divided by 25 (the maximum score in each category) to create proportions of biting midges landing and flying. The proportions are then transferred using the standard variance stabilizing transformation for proportions (sin^−1 √y, where y is the proportion), and analyzed using ANOVA (Analysis of Variables). In Table 4, weight percent (wt %) refers to the weight of the deterring/repelling/inhibiting compound, or combination of compounds, in the composition used in the tests. […] The weight ratio of the compounds in the combination of compounds is given in parentheses in the “Compound(s)” column of Table 4.

[3] = system: female biting midges (Culicoides impunctatus); assay: Biting midges flying test (Plexiglas module); conditions: control = 1, higher = more inhibitor activity
Description: The following tests are employed to illustrate the efficacy of the compounds of this disclosure to effectively act as biting midge deterrents, repellents or as spatial inhibitors for biting midges. […] Biting midges are tested in a two-piece Plexiglas module designed to assess their response to feeding deterrents. […] Water (40° C.) flows through the central cavity of the platform at a rate of 215 ml/min. The top piece of the module consists of six 4.5×4.0×5.0 cm chambers, the floors of which are fitted with a sliding door positioned over a circular opening 3.5 cm in diameter. Biting midges are introduced through an aperture 1 cm in diameter on the front wall of the chambers. For each test, five female biting midges (Culicoides impunctatus) are aspirated into each of five chambers of the top module piece and the apertures are plugged with corks wrapped in plastic film. […] To each well, 77.5 μl of green dye (McCormick Food, Hunt Valley, Md.) are added so that those biting midges imbibing the sugar solution can be identified when crushed at the end of the tests. Each membrane receives 50 μl of acetone or experimental compound solution, applied to 9.6 cm^2 circular area on 0.1 mm-thick membranes made of nylon mesh in a silicone matrix. The membranes are then placed over each well in contact with the sugar solution. The circular openings on the floor of each chamber of the top piece of the module are aligned with each membrane-covered well of the bottom piece. The sliding floors of the chambers are then opened allowing biting midges access to the membranes. The number of biting midges landing on the membranes, and those flying within the apparatus, are recorded each minute for five minutes. After five minutes, any biting midges remaining on the membranes are removed with a metal wire, and the door of the floor of each chamber is closed. The top piece of the module is then placed into a freezer for 20 minutes. In the test designed to assess feeding, biting midges are removed from the frozen module, crushed on white paper towels, and examined for the presence of green dye to indicate that feeding had occurred. The proportions of biting midges feeding per trial are analyzed using a standard generalized linear model with a logit link. Landing and flying scores are repeated measures; five readings are obtained for groups of five biting midges. Thus, to maintain independence among the data, the five readings are summed, and then the sums divided by 25 (the maximum score in each category) to create proportions of biting midges landing and flying. The proportions are then transferred using the standard variance stabilizing transformation for proportions (sin^−1 √y, where y is the proportion), and analyzed using ANOVA (Analysis of Variables). In Table 5, weight percent (wt %) refers to the weight of the deterring/repelling/inhibiting compound, or combination of compounds, in the composition used in the tests. […] The weight ratio of the compounds in the combination of compounds is given in parentheses in the “Compound(s)” column of Table 5.

[4] = 80 wt % compound(s) in composition
[5] = 85 wt % compound(s) in composition
[6] = 77.5 wt % compound(s) in composition
[7] = 92.5 wt % compound(s) in composition
[8] = 82.5 wt % compound(s) in composition
[9] = 87.5 wt % compound(s) in composition
[10] = 95 wt % compound(s) in composition
[11] = 90 wt % compound(s) in composition

## Cc1ccc(C(C)(C)O)cc1
[1]; [4]
  Percent Caught Relative To Control: 26%
[1]
  percent mosquitoes caught relative to the control (relative catch): about 34%
[2]; [4]
  Feeding Relative To Control: 0.73
[3]; [4]
  Flying Relative To Control: 1.2

## C=C(C)[C@@H]1CC=C(C)[C@H](O)C1 (relative stereo) [cis-Carveol]
[1]; [5]
  Percent Caught Relative To Control: 23%
[2]; [5]
  Feeding Relative To Control: 0.67
[3]; [5]
  Flying Relative To Control: 1.25

## C=C(C)[C@@H]1CC=C(C)[C@@H](O)C1 (relative stereo) [trans-Carveol]
[1]; [6]
  Percent Caught Relative To Control: 22%
[2]; [6]
  Feeding Relative To Control: 0.63
[3]; [6]
  Flying Relative To Control: 1.5

## C=C(C)C1CCC2(C)OC2C1 (single isomer, unassigned; (-)) [(−) Limonene oxide]
[1]; [7]
  Percent Caught Relative To Control: 17%
[2]; [7]
  Feeding Relative To Control: 0.75
[3]; [7]
  Flying Relative To Control: 1.15

## CC(C)=CCCC(C)=CC=O [Citral]
[1]; [8]
  Percent Caught Relative To Control: 10%
[2]; [8]
  Feeding Relative To Control: 0.60
[3]; [8]
  Flying Relative To Control: 2.15

## CC(C)=CCCC(C)CC=O (stereo not drawn) [Citronellal]
[1]; [7]
  Percent Caught Relative To Control: 11%
[2]; [7]
  Feeding Relative To Control: 0.64
[3]; [7]
  Flying Relative To Control: 1.95

## CC(C)=CCCC(C)CCO (stereo not drawn) [Citronellol]
[1]; [9]
  Percent Caught Relative To Control: 12%
[2]; [9]
  Feeding Relative To Control: 0.64
[3]; [9]
  Flying Relative To Control: 1.5

## CC(=O)OCCC(C)CCC=C(C)C (stereo not drawn) [Citronellyl acetate]
[1]; [4]
  Percent Caught Relative To Control: 26%
[2]; [4]
  Feeding Relative To Control: 0.67
[3]; [4]
  Flying Relative To Control: 1.25

## CC(=O)OC/C=C(\C)CCC=C(C)C [Geranyl acetate]
[1]; [5]
  Percent Caught Relative To Control: 30%
[2]; [5]
  Feeding Relative To Control: 0.64
[3]; [5]
  Flying Relative To Control: 1.5

## C=CC(C)(CCC=C(C)C)OC(C)=O (stereo not drawn) [Linaloyl acetate]
[1]; [10]
  Percent Caught Relative To Control: 15%
[2]; [10]
  Feeding Relative To Control: 0.72
[3]; [10]
  Flying Relative To Control: 1.2

## CC(=O)OC/C=C(/C)CCC=C(C)C [Neryl acetate]
[1]; [6]
  Percent Caught Relative To Control: 22%
[2]; [6]
  Feeding Relative To Control: 0.72
[3]; [6]
  Flying Relative To Control: 2.5

## CC1=CCC(O)(C(C)C)CC1 (stereo not drawn) [Terpinen-4-ol]
[1]; [11]
  Percent Caught Relative To Control: 20%
[1]
  percent mosquitoes caught relative to the control (relative catch): about 38%
[2]; [11]
  Feeding Relative To Control: 0.74
[3]; [11]
  Flying Relative To Control: 1.6

## CC(C)[C@@H]1CC[C@@H](C)C(=O)C1 [Tetrahydrocarvone]
[1]; [10]
  Percent Caught Relative To Control: 25%
[1]
  percent mosquitoes caught relative to the control (relative catch): about 52%
[2]; [10]
  Feeding Relative To Control: 0.72
[3]; [10]
  Flying Relative To Control: 1.7

## C=C(C)[C@H]1CC=C(C)C(=O)C1 [d-Carvone]
[1]; [6]
  Percent Caught Relative To Control: 12%
[2]; [6]
  Feeding Relative To Control: 0.65
[3]; [6]
  Flying Relative To Control: 1.55

## C=C[C@@](C)(O)CCC=C(C)C [d-Linalool, reference compound]
[1]; [4]
  Percent Caught Relative To Control: 6%
[2]; [4]
  Feeding Relative To Control: 0.31
[3]; [4]
  Flying Relative To Control: 1.35

## CC1=CCC(C(C)(C)O)CC1 (stereo not drawn) [α-terpineol]
[1]; [11]
  Percent Caught Relative To Control: 18%
[2]; [11]
  Feeding Relative To Control: 0.80
[3]; [11]
  Flying Relative To Control: 1.5

## (+) Limonene oxide
[1]; [9]
  Percent Caught Relative To Control: 18%
[2]; [9]
  Feeding Relative To Control: 0.77
[3]; [9]
  Flying Relative To Control: 0.95

## l-Carvone
[1]; [8]
  Percent Caught Relative To Control: 10%
[2]; [8]
  Feeding Relative To Control: 0.62
[3]; [8]
  Flying Relative To Control: 1.65
